Results from publication PMC12118722, “Self-assembled peptide-dye nanostructures for in vivo tumor imaging and photodynamic toxicity” (npj Imaging, 2024).

Assays:
[1] = test system: HEK 293T cells; assay: Competitive inhibition flow cytometry with αVβ5 primary antibodies; assay type: cell-based, human
Method: The peptide formulations were further challenged via competitive inhibition flow cytometry studies to confirm their specific interactions with integrin receptors (Fig. 3b, c). In addition to labeling as before, some cells were pre-incubated with αVβ5 primary antibodies before iRGD-BNPs or iRGD-SNPs. […] There was no observable change in fluorescence from the presence of the antibodies for HEK 293-T cells.
300,000 cells were seeded overnight. For the competitive inhibition samples, cell cultures were first treated with αVβ5 mABs ([…]) for 90 min. The cells were then treated with the iRGD-BNPs, iR GD-SNPs, or methylene blue. The cells were detached, collected at 700xG, and the media was decanted while the cells were resuspended in ice cold buffer for flow cytometry using the APC channel.

[2] = methylene blue reference value used for the relative measurement; no reference given; cited from earlier work
Text: The optical and photoacoustic properties of the assemblies were also studied (Fig. 4). When the nanospheres and branched NPs were scanned from 400 to 700 nm for optical absorbance, both adopted a similar peak absorbance to methylene blue at 662 nm. When the peaks were normalized, there was no 614 nm shoulder growth where dimerization typically forms. While the iRGD-BNP maintained methylene blue’s distinct blue color, the iRGD-SNP samples shifted to a slightly greener color. The quantum yield for the branched NPs and the nanospheres relative to methylene blue (52%) were 43% and 31%, respect ...

[3] = Ex vivo biodistribution by methylene blue fluorescence of harvested organs; details: ex vivo IVIS fluorescence after euthanasia
Text: The vital organs of the subjects were harvested after euthanasia and analyzed for fluorescence from the methylene blue for biodistribution studies.
After the subject was euthanized, the heart, lungs, liver, spleen, kidneys, and tumor were harvested and rinsed in PBS. The organs were then imaged for fluorescence signal via IVIS Perkin-Elmer Illumination and LivingImage software.

SMILES: CN(C)c1ccc2nc3ccc(=[N+](C)C)cc-3sc2c1 [methylene blue]
- change in fluorescence with αVβ5 antibody pre-incubation [1]: no change in fluorescence increase
- quantum yield of reference [2]: 52%
- fluorescence in vital organs [3]: nonspecific and low fluorescence in all of the vital organs
